Calls of active or inactive are those of the source. The calls are words filed in the database; no cut-off is given here.

Assay [1] relates to Saccharomyces cerevisiae. Briefly: Inhibition of Saccharomyces cerevisiae alpha-glucosidase using 4-nitrophenyl alpha-D-glucopyranoside as substrate.
Assay [2] is described as follows: Inhibition of Saccharomyces cerevisiae alpha-glucosidase using 4-nitrophenyl alpha-D-glucopyranoside as substrate preincubated for 120 mins.
Assay [3] relates to Saccharomyces cerevisiae. Briefly: Irreversible inhibition of Saccharomyces cerevisiae alpha-glucosidase using 4-nitrophenyl alpha-D-glucopyranoside as substrate at 300 uM after 30 mins.
Assay [4] deals with Saccharomyces cerevisiae. Put plainly: Time dependent inhibition of Saccharomyces cerevisiae alpha-glucosidase using 4-nitrophenyl alpha-D-glucopyranoside as substrate.

Regarding `N#Cc1c(NC(=O)CC2SC(N)=NC2=O)sc2c1CCCCCC2` (single isomer, unassigned; enantiomer 1), in the assay with Saccharomyces cerevisiae [1], the inhibition entry was “inactive”.

The molecule `CC(C)(C)C1CCc2c(sc(NC(=O)CC3SC(N)=NC3=O)c2C#N)C1` (racemic) [listing 1 of 2 here] returned an IC50 in assay [2] of 27.1 µM.

For the molecule `CC(C)(C)C1CCc2c(sc(NC(=O)CC3SC(N)=NC3=O)c2C#N)C1` (racemic) [listing 2 of 2 here], the inhibition result with Saccharomyces cerevisiae [3] and in the assay with Saccharomyces cerevisiae [1] was “Active” throughout. Besides, the TDI entry in the assay on Saccharomyces cerevisiae [4] was “Active”.

`N#Cc1c(NC(=O)CC2SC(N)=NC2=O)sc2c1CCCCCC2` (racemic) [listing 1 of 2 here] came in with an IC50 in assay [2] of 2.47 µM.

Regarding `CC(C)(C)C1CCc2c(sc(NC(=O)CC3SC(N)=NC3=O)c2C#N)C1` (single isomer, unassigned; enantiomer 1), in the assay with Saccharomyces cerevisiae [1], the inhibition result was “inactive”.

Regarding `N#Cc1c(NC(=O)CC2SC(N)=NC2=O)sc2c1CCCCCC2` (racemic) [listing 2 of 2 here], the inhibition entry in the assay on Saccharomyces cerevisiae [3] and in the assay with Saccharomyces cerevisiae [1] was “Active” in each case. Moreover, the TDI result in the assay on Saccharomyces cerevisiae [4] is “Active”.

In the case of `N#Cc1c(NC(=O)CC2SC(N)=NC2=O)sc2c1CCCCCC2` (single isomer, unassigned; enantiomer 2), the inhibition entry in the assay with Saccharomyces cerevisiae [1] is “inactive”.

With `CC(C)(C)C1CCc2c(sc(NC(=O)CC3SC(N)=NC3=O)c2C#N)C1` (single isomer, unassigned; enantiomer 2), in the assay with Saccharomyces cerevisiae [1], the inhibition entry was “inactive”.

For orientation: IC50 means the concentration needed to halve the response being measured. A higher IC50 goes with weaker potency.

These data come from ChEMBL document CHEMBL1932982, “Virtual ligand screening of α-glucosidase: Identification of a novel potent noncarbohydrate mimetic inhibitor” (Bioorg Med Chem Lett, 2012).
